The test deals with LRF (luteinizing hormone release factor) induced luteinizing hormone (LH) release. The test can be described thus: In vitro LRF antagonist test in rat anterior pituitary cell cultures. Format: cell-based. An excerpt: Hexapeptides of this invention were screened for LRF antagonist activity in vitro using rat anterior pituitary cell cultures as described by Vale et. al. [Endocrinology, 91, 562 (1972)]. The inhibition of LRF (luteinizing hormone release factor) induced luteinizing hormone (LH) release into the culture medium is the endpoint of this in vitro bioassay.

The mark [1] stands for this setting: compound 1×10^-7 molar, run with LRF Control 3.5×10^-10 molar.
The mark [2] stands for this setting: compound 2×10^-7 molar, run with LRF Control 3.5×10^-10 molar.
[3] abbreviates: compound 3.5×10^-7 molar, run with LRF Control 3.5×10^-10 molar.
[4] abbreviates: compound 6×10^-7 molar, run with LRF Control 3.5×10^-10 molar.
[5] abbreviates: compound 6×10^-8 molar, run with LRF Control 3.5×10^-10 molar.
Where [6] appears, read: compound 1×10^-6 molar, run with LRF Control 2.5×10^-10 molar.

Take “LRF Control: luteinizing hormone releasing factor, also referred to as luteinizing hormone releasing hormone, LH-RH; stimulates secretion of luteinizing hormone (QHWSYGLRPG; Gonadoliberin-1; UniProt P01148 24-33, looked up) [reference compound]”: the “LH Value” is 38.98 ng/mL (LRF alone 2.5×10^-10 molar (first run)) and 41.70 ng/mL (LRF alone 3.5×10^-10 molar (second run)).
For “N^α -t-Butoxycarbonyl-L-tryptophyl-N^im -benzyl-L-histidyl-O-benzyl-L-seryl-O-benzyl-L-tyrosyl-L-prolyl-D-alanine N-ethylamide”, the “% LH Release Inhibition” value is 49% under setting [1]; 93% under setting [2]; 104% under setting [3]; 106% under setting [4]; 11% under setting [5]. The “LH Value” was 27.52 ng/mL under setting [1]; 14.63 ng/mL under setting [2]; 11.46 ng/mL under setting [3]; 10.90 ng/mL under setting [4]; 38.53 ng/mL under setting [5].
For “N^α -t-Butoxycarbonyl-L-tryptophyl-N^im -benzyl-L-histidyl-O-benzyl-L-seryl-O-benzyl-L-tyrosyl-L-prolyl-D-alanine methyl ester”, under setting [6], the “% LH Release Inhibition” value amounted to 85% and the “LH Value” amounted to 11.04 ng/mL.

Values taken from US4087417A, “Hexapeptides and methods for their production” (Parke, Davis & Company, priority 1976, dated 1978).
